From ChEMBL document CHEMBL4229455, “Synthesis and anticancer activity of novel bisindolylhydroxymaleimide derivatives with potent GSK-3 kinase inhibition” (Bioorg Med Chem, 2018)

What was measured:
[1] = target: Cyclin-dependent kinase 5/CDK5 activator 1 (Homo sapiens, UniProt Q00535); assay: Inhibition of recombinant full length human CDK5/p25 expressed in bacteria using histone H1 as substrate in presence of [gamma-33P]ATP
RXF 393 = assay: Cytotoxicity against human RXF393 cells assessed as cell growth at 10 uM after 48 hrs by SRB assay relative to control; format: functional; conditions: RXF 393, 48 h, read-out: Activity
SK-OV-3 = assay: Cytotoxicity against human SKOV3 cells assessed as cell growth at 10 uM after 48 hrs by SRB assay relative to control; format: functional; conditions: SK-OV-3, 48 h, read-out: Activity
NCI-H23 = assay: Cytotoxicity against human NCI-H23 cells assessed as cell growth at 10 uM after 48 hrs by SRB assay relative to control; format: functional; conditions: NCI-H23, 48 h, read-out: Activity
SN12C = assay: Cytotoxicity against human SN12C cells assessed as cell growth at 10 uM after 48 hrs by SRB assay relative to control; format: functional; conditions: read-out: Activity
A498 = assay: Cytotoxicity against human A498 cells assessed as cell growth at 10 uM after 48 hrs by SRB assay relative to control; format: functional; conditions: A498, 48 h, read-out: Activity
Aurora kinase B [2] = target: T1, Aurora kinase B (Homo sapiens, UniProt Q96GD4); assay: Inhibition of recombinant full length human aurora B expressed in baculovirus infected Sf9 insect cells assessed as residual activity at 10 uM using MBP as substrate in presence of [gamma-33P]ATP
TK-10 = assay: Cytotoxicity against human TK10 cells assessed as cell growth at 10 uM after 48 hrs by SRB assay relative to control; format: functional; conditions: TK-10, 48 h, read-out: Activity
DU-145 = assay: Cytotoxicity against human DU145 cells assessed as cell growth at 10 uM after 48 hrs by SRB assay relative to control; format: functional; conditions: DU-145, 48 h, read-out: Activity
[3] = target: CDK9/cyclin T1 (Homo sapiens) (UniProt O60563+P50750); assay: Inhibition of recombinant full length human CDK9/cyclin T expressed in baculovirus infected Sf9 insect cells assessed as residual activity at 10 uM using YSPTSPSYSPTSPSYSPTSPSKKKK as substrate in presence of [gamma-33P]ATP
U-251 = assay: Cytotoxicity against human U251 cells assessed as cell growth at 10 uM after 48 hrs by SRB assay relative to control; format: functional; conditions: U-251, 48 h, read-out: Activity
MCF7 = assay: Cytotoxicity against human MCF7 cells assessed as cell growth at 10 uM after 48 hrs by SRB assay relative to control; format: functional; conditions: MCF7, 48 h, read-out: Activity
ACHN = assay: Cytotoxicity against human ACHN cells assessed as cell growth at 10 uM after 48 hrs by SRB assay relative to control; format: functional; conditions: read-out: Activity
[4] = Inhibition of domestic porcine brain full length […] using RRKHAAIGSpAYSITA as substrate in presence of [gamma-33P]ATP; design: species or system Sus scrofa domesticus
SK-MEL-28 = assay: Cytotoxicity against human SK-MEL-28 cells assessed as cell growth at 10 uM after 48 hrs by SRB assay relative to control; format: functional; conditions: SK-MEL-28, 48 h, read-out: Activity
CDK2/Cyclin A2 = CDK2/Cyclin A2 (Homo sapiens, UniProt P24941); assay: Inhibition of full length human CDK2/cyclin A using histone H1 as substrate in presence of [gamma-33P]ATP; format: protein-complex assay
HT-29 = assay: Cytotoxicity against human HT-29 cells assessed as cell growth at 10 uM after 48 hrs by SRB assay relative to control; format: functional; conditions: HT-29, 48 h, read-out: Activity
Aurora kinase B [5] = target: T1, Aurora kinase B; assay: Inhibition of recombinant full length human aurora B expressed in baculovirus infected Sf9 insect cells using MBP as substrate in presence of [gamma-33P]ATP
COLO 205 = assay: Cytotoxicity against human COLO205 cells assessed as cell growth at 10 uM after 48 hrs by SRB assay relative to control; format: functional; conditions: COLO 205, 48 h, read-out: Activity
OVCAR-8 = assay: Cytotoxicity against human OVCAR8 cells assessed as cell growth at 10 uM after 48 hrs by SRB assay relative to control; format: functional; conditions: OVCAR-8, 48 h, read-out: Activity
UO-31 = assay: Cytotoxicity against human UO31 cells assessed as cell growth at 10 uM after 48 hrs by SRB assay relative to control; format: functional; conditions: UO-31, 48 h, read-out: Activity
[6] = target: Dual specificity tyrosine-phosphorylation-regulated kinase 1A (Rattus norvegicus, UniProt Q63470); assay: Inhibition of recombinant rat DYRK1A kinase domain expressed in bacteria using KKISGRLSPIMTEQ as substrate in presence of [gamma-33P]ATP
[7] = target: Receptor-interacting serine/threonine-protein kinase 3 (Homo sapiens, UniProt Q9Y572); assay: Inhibition of recombinant full length human RIPK3 expressed in baculovirus infected Sf9 insect cells assessed as residual activity at 10 uM using MBP as substrate in presence of [gamma-33P]ATP
CCRF-CEM = assay: Cytotoxicity against human CCRF-CEM cells assessed as cell growth at 10 uM after 48 hrs by SRB assay relative to control; format: functional; conditions: read-out: Activity
[8] = target: Serine/threonine-protein kinase pim-1 (Homo sapiens, UniProt P11309); assay: Inhibition of recombinant full length human PIM1 expressed in bacteria assessed as residual activity at 10 uM using histone H1 as substrate in presence of [gamma-33P]ATP
NCI/ADR-RES = assay: Cytotoxicity against human NCI-ADR-RES cells assessed as cell growth at 10 uM after 48 hrs by SRB assay relative to control; format: functional; conditions: read-out: Activity
K562 = assay: Cytotoxicity against human K562 cells assessed as cell growth at 10 uM after 48 hrs by SRB assay relative to control; format: functional; conditions: K562, 48 h, read-out: Activity
Sus scrofa domesticus = species: Sus scrofa domesticus; assay: Inhibition of domestic porcine brain full length […] assessed as residual activity at 10 uM using RRKHAAIGSpAYSITA as substrate in presence of [gamma-33P]ATP
NCI-H460 = assay: Cytotoxicity against human NCI-H460 cells assessed as cell growth at 10 uM after 48 hrs by SRB assay relative to control; format: functional; conditions: NCI-H460, 48 h, read-out: Activity
NCI-H322M = assay: Cytotoxicity against human NCI-H322M cells assessed as cell growth at 10 uM after 48 hrs by SRB assay relative to control; format: functional; conditions: read-out: Activity
[9] = target: Glycogen synthase kinase-3 (Sus scrofa, UniProt B2LUN4+I6LNT8); assay: Inhibition of domestic porcine brain full length GSK-3alpha/beta using GS-1 as substrate in presence of [gamma-33P]ATP; design: species or system Sus scrofa domesticus
HL-60(TB) = assay: Cytotoxicity against human HL-60(TB) cells assessed as cell growth at 10 uM after 48 hrs by SRB assay relative to control; format: functional; conditions: HL-60, 48 h, read-out: Activity
SF-539 = assay: Cytotoxicity against human SF539 cells assessed as cell growth at 10 uM after 48 hrs by SRB assay relative to control; format: functional; conditions: SF-539, 48 h, read-out: Activity

T1 sequence (Q96GD4 whole entry): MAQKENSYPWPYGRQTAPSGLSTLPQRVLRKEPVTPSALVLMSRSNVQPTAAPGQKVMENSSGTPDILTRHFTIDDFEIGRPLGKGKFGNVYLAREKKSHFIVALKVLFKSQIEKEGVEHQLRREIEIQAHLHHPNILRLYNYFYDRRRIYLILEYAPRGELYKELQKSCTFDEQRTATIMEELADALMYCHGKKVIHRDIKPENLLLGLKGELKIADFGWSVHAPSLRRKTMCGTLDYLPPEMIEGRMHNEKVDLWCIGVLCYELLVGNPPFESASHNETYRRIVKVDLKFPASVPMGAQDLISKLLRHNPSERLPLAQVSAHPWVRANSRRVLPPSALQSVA
Sequence of Cyclin-dependent kinase 5/CDK5 activator 1 (Q00535 whole entry): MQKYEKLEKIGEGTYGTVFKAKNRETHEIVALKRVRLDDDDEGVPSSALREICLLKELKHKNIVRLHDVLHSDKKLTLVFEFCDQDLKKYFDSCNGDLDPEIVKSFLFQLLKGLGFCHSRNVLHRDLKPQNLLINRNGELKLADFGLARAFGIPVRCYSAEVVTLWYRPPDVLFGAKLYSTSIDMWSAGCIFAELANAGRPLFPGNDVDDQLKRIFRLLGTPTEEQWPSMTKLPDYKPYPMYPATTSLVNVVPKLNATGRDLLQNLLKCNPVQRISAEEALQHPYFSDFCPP
Sequence of Cyclin-dependent kinase 5/CDK5 activator 1 (Q15078 whole entry, further chain): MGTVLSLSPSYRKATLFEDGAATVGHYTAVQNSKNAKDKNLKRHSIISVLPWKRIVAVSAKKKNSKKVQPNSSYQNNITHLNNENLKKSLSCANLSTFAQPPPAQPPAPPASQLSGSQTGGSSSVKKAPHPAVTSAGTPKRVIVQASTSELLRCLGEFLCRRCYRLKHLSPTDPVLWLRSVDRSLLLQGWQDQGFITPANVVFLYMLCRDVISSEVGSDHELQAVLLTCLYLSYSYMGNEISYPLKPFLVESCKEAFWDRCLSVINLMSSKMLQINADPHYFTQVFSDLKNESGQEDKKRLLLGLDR
Sequence of Receptor-interacting serine/threonine-protein kinase 3 (Q9Y572 whole entry, looked up): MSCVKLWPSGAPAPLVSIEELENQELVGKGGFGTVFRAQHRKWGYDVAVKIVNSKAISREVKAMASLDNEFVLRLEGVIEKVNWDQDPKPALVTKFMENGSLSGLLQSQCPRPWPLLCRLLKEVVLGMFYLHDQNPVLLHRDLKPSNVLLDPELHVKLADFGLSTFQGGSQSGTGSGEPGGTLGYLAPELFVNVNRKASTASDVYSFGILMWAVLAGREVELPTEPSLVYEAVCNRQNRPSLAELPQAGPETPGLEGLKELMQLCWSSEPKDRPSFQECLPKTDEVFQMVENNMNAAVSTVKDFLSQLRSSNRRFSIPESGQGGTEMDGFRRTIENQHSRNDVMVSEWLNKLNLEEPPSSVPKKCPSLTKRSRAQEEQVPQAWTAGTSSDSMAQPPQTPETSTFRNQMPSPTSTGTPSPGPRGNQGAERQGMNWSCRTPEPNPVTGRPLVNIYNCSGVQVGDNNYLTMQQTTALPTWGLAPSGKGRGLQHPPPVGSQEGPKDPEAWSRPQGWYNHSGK
Sequence of Serine/threonine-protein kinase pim-1 (P11309 whole entry, looked up): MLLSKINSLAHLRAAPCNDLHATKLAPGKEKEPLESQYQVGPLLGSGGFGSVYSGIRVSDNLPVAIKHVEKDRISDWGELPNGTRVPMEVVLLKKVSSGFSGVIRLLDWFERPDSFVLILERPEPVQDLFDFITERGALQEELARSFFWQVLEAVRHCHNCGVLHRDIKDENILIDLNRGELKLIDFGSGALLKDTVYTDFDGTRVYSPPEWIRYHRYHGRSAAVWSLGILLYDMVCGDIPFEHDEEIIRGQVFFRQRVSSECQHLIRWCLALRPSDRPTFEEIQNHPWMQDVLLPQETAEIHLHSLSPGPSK

Structure (SMILES) | IC50 [1] [µM] | growth at 10 µM (NCI-H23) [%] | growth at 10 µM (SN12C) [%] | Activity (Aurora kinase B [2]) [%] | growth at 10 µM (TK-10) [%] | growth at 10 µM (DU-145) [%] | Activity [3] [%] | growth at 10 µM (U-251) [%] | growth at 10 µM (MCF7) [%] | growth at 10 µM (ACHN) [%] | IC50 [4] [µM] | growth at 10 µM (SK-MEL-28) [%] | IC50 (CDK2/Cyclin A2) [µM] | growth at 10 µM (HT-29) [%] | IC50 (Aurora kinase B [5]) [µM] | growth at 10 µM (COLO 205) [%] | growth at 10 µM (OVCAR-8) [%] | growth at 10 µM (UO-31) [%] | IC50 [6] [µM] | Activity [7] [%] | also measured
N#CCCCCCn1cc(C2=C(c3cn(CCCCCC#N)c4ccccc34)C(=O)N(O)C2=O)c2ccccc21 | > 10 | 38 to 76.9 | 47 to 88.2 | 75 | 70 to 84.2 | 80 to 101 | 55 | 25 to 82.2 | 14 to 39.9 | 45 to 81.7 | > 10 | 35 to 83.3 | > 10 | 51 to 92.4 | > 10 | 74 to 91.7 | 55 to 87.6 | 23 to 43.8 | > 10 | 109 | growth at 10 µM (RXF 393): 2 to 73.2%; growth at 10 µM (SK-OV-3): 45 to 78.5%; growth at 10 µM (A498): 16 to 69.2%; growth at 10 µM (CCRF-CEM): 8 to 54.2%; Activity [8]: 78%; growth at 10 µM (NCI/ADR-RES): 62 to 96.3%; growth at 10 µM (K562): 15 to 33.9%; Activity (Sus scrofa domesticus): 67%; growth at 10 µM (NCI-H460): 28 to 72.7%; growth at 10 µM (NCI-H322M): 45 to 92.3%; IC50 [9]: 0.75 µM
CC(C)n1cc(C2=C(c3cn(C)c4ccccc34)C(=O)N(O)C2=O)c2ccccc21 | > 10 | 81.8 | 95.2 | 95 | 127 | 192 | -7 | 98.8 | 91.6 | 88 | > 10 | 112 | 7 | 105 | > 10 | 101 | 94.8 | 56.4 | > 10 | 103 | growth at 10 µM (RXF 393): 89.2%; growth at 10 µM (SK-OV-3): 95.8%; growth at 10 µM (A498): 99%; growth at 10 µM (HL-60(TB)): 98.7%; Activity [8]: 28%; growth at 10 µM (NCI/ADR-RES): 92.4%; growth at 10 µM (K562): 77.7%; Activity (Sus scrofa domesticus): 98%; growth at 10 µM (NCI-H460): 98.3%; growth at 10 µM (SF-539): 97.6%; growth at 10 µM (NCI-H322M): 91.7%; IC50 [9]: 0.2 µM
Cn1cc(C2=C(c3cn(C)c4ncccc34)C(=O)NC2=O)c2ccccc21 | 0.8 | 30 to 49.3 | 4 to 30.7 | 84 | 26.3 to 33 | 36 to 63.2 | -10 | 27 | 13 to 22.7 | 8 to 26.5 | > 10 | 8 to 51.3 | 0.1 | 2.28 to 5 | > 10 | -63 | 23 to 53.8 | 12 to 22.6 | > 10 | 79 | growth at 10 µM (HL-60(TB)): 3.55 to 9%; growth at 10 µM (CCRF-CEM): 6.61 to 9%; Activity [8]: 1%; growth at 10 µM (NCI/ADR-RES): 34 to 53.5%; growth at 10 µM (K562): 16 to 19.9%; Activity (Sus scrofa domesticus): 76%; growth at 10 µM (NCI-H460): 19 to 19.5%; IC50 [9]: 0.03 µM
